In PubChem BioAssay (NCI):
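Tested at 5 concentrations; 48 h exposure; 96-well plates; endpoints linearly interpolated, else capped at highest concentration. GI50: concentration for 50% inhibition of growth. The concentration for full growth arrest is given as TGI.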

How the values were obtained:
Experiment in all cases: DTP human tumour cell line panel, 48 h
CCRF-CEM leukemia = system: CCRF-CEM leukemia
U251 CNS = system: U251 CNS
NCI-H23 lung = system: NCI-H23 lung
A549 NSCLC = system: A549 NSCLC
SR leukemia = system: SR leukemia
LOX IMVI melanoma = system: LOX IMVI melanoma
MCF7 breast = system: MCF7 breast
PC-3 prostate = system: PC-3 prostate
BT-549 breast = system: BT-549 breast
A498 renal = system: A498 renal
ACHN renal = system: ACHN renal
IGROV1 ovarian = system: IGROV1 ovarian
786-0 renal = system: 786-0 renal
MALME-3M melanoma = system: MALME-3M melanoma
UACC-62 melanoma = system: UACC-62 melanoma
MDA-MB-231 breast = system: MDA-MB-231 breast
SW-620 colon = system: SW-620 colon
NCI/ADR-RES ovarian = system: NCI/ADR-RES ovarian
SF-295 CNS = system: SF-295 CNS
KM12 colon = system: KM12 colon
NCI-H460 lung = system: NCI-H460 lung
SN12C renal = system: SN12C renal
HCT-116 colon = system: HCT-116 colon
OVCAR-5 ovarian = system: OVCAR-5 ovarian
HCT-15 colon = system: HCT-15 colon
SF-539 CNS = system: SF-539 CNS
NCI-H226 lung = system: NCI-H226 lung
RXF 393 renal = system: RXF 393 renal

Q: Which results are given for `c1ccc2[nH]c(-c3ccc(N4CCN(c5ccc(-c6nc7ccccc7[nH]6)cc5)CC4)cc3)nc2c1`?
A: GI50 (CCRF-CEM leukemia): 44.6 µM; TGI (CCRF-CEM leukemia): > 100 µM; GI50 (U251 CNS): 41.3 µM; TGI (U251 CNS): > 100 µM; GI50 (NCI-H23 lung): > 100 µM; TGI (NCI-H23 lung): > 100 µM; GI50 (A549 NSCLC): > 100 µM; TGI (A549 NSCLC): > 100 µM; GI50 (SR leukemia): 3.08 µM; TGI (SR leukemia): 6.85 µM; GI50 (LOX IMVI melanoma): > 100 µM; TGI (LOX IMVI melanoma): > 100 µM; GI50 (MCF7 breast): 34.5 µM; TGI (MCF7 breast): > 100 µM; GI50 (PC-3 prostate): > 100 µM; TGI (PC-3 prostate): > 100 µM; GI50 (BT-549 breast): > 100 µM; TGI (BT-549 breast): > 100 µM; GI50 (A498 renal): 54.8 µM; TGI (A498 renal): > 100 µM; GI50 (ACHN renal): > 100 µM; TGI (ACHN renal): > 100 µM; GI50 (IGROV1 ovarian): 69.6 µM; TGI (IGROV1 ovarian): > 100 µM; GI50 (786-0 renal): 36.9 µM; TGI (786-0 renal): > 100 µM; GI50 (MALME-3M melanoma): > 100 µM; TGI (MALME-3M melanoma): > 100 µM; GI50 (UACC-62 melanoma): 83 µM; TGI (UACC-62 melanoma): > 100 µM; GI50 (MDA-MB-231 breast): > 100 µM; TGI (MDA-MB-231 breast): > 100 µM; GI50 (SW-620 colon): 58 µM; TGI (SW-620 colon): > 100 µM; GI50 (NCI/ADR-RES ovarian): > 100 µM; TGI (NCI/ADR-RES ovarian): > 100 µM; GI50 (SF-295 CNS): > 100 µM; TGI (SF-295 CNS): > 100 µM; GI50 (KM12 colon): 71.1 µM; TGI (KM12 colon): > 100 µM; GI50 (NCI-H460 lung): > 100 µM; TGI (NCI-H460 lung): > 100 µM; GI50 (SN12C renal): > 100 µM; TGI (SN12C renal): > 100 µM; GI50 (HCT-116 colon): 5.11 µM; TGI (HCT-116 colon): > 100 µM; GI50 (OVCAR-5 ovarian): 52 µM; TGI (OVCAR-5 ovarian): > 100 µM; GI50 (HCT-15 colon): > 100 µM; TGI (HCT-15 colon): > 100 µM; GI50 (SF-539 CNS): > 100 µM; TGI (SF-539 CNS): > 100 µM; GI50 (NCI-H226 lung): 24.2 µM; TGI (NCI-H226 lung): > 100 µM; GI50 (RXF 393 renal): > 100 µM; TGI (RXF 393 renal): > 100 µM
